In patent publication US20260069581A1, “METHODS AND COMPOSITIONS FOR CANCER THERAPY” (OHIO STATE INNOVATION FOUNDATION, priority 2020, published 2026):

Assays:
[1] = In vivo MOLM13 xenograft study, toxicities and weight; set-up: species or system NCG mice; conditions: over the course of the study (FIG. 11B)
Description: FIG. 11A show H&E images of tissues obtained from MOLM13 xenograft mice that with the magnification and treatments as indicated in the figure. The images were representative of 3 different fields. […] FIG. 11B show weight change data of MOLM13 xenograft mice in response to different treatments.
In vivo MOLM13 xenograft study. All experiments were approved by the OSU Institutional Animal Care and Use Committee. Male NOD-Prkdc^em26cd52Il2rg^em26cd22/NjuCrl (NCG) mice (RRID:IMSR_CRL:572) (aged 6-8 weeks) were obtained from Charles River Laboratory. Mice were group-housed under conditions of constant photoperiod (12-hour light/12-hour dark), temperature, and humidity with adlibitum access to water and irradiated standard pelleted chow. […] luciferase-tagged MOLM13 cells were injected via tail vein into NCG mice. On day 5 post-engraftment, mice were randomized to receive placebo (vehicle; Karyopharm Therapeutics) once daily, 100 mg/kg of KPT-9274 (Karyopharm Therapeutics) once daily, 20 mg/kg AR-42 every another day and the combination of KPT-9274 and AR-42 via oral gavage. Overall survival was the primary end point for the majority of the mice. […] Mice were monitored by animal technicians who were blinded to the treatment groups and determined when mice met early removal criteria (20% weight loss, lethargy, hunching, and poor body condition). […]

[2] = tested on: MOLM13 cells; test: MTS cell viability of shRNA-stable or sgRNA-transfected MOLM13 cells treated with KPT-9274; type: cell-based, human; conditions: MOLM13, 48-hour treatment
Experimental: FIGS. 7A-7B show representative data for knockdown of selected genes has modest effects on MOLM13 responses to KPT-9274 treatment. […] For the graphs in FIGS. 7A-7B, the responses of parental, shRNA-stable and sgRNA-transfected MOLM13 cells to KPT-9274 treatment (48-hour treatments) are plotted. Cell viability was measured with MTS (y-axis). Results are shown as mean±SEM of 4 technical replicates and 3 biological replicates. Western blotting for knockdown efficiency is shown.
MTS assay. For MTS assays, AML cell lines or patient-derived cells were treated in a 96-well plate at 1-6×10^5 cells per well for 24-72 hours. Patient-derived CD34^+ primary cells were cultured in 96-well plates coated with collagen in the presence of 10 ng/ml IL-3, 10 ng/ml IL-6, 10 ng/ml SCF and 10 ng/ml GM-CSF. Cells were treated with increasing concentrations of KPT-9274 (0 nM to 10 μM) or vehicle control (dimethyl sulfoxide [DMSO]). […] MTS [3-(4,5-dimethylthiazol-2-yl)-5-(3-carboxymethoxyphenyl)-2-(4-sulfophenyl)-2H-tetrazolium](Pro-mega, Madison, WI) was incubated with drug-treated cells according to the manufacturer's instructions. Plates were read by using a BioTek synergy H4 hybrid multimode microplate reader (Thermo Fisher Scientific) at 490 nM. […]

| Structure (SMILES) | weight loss [1] | synergy of knockdown of IMPA2, HEXA, PTGS1 and DCPS with KPT-9274 treatment ([2]; MTS (FIG. 7A)) | impact of depletion of HDAC1, HDAC3 or HDAC6 with CRISPR on KPT-9274 sensitivity ([2]; MTS (FIG. 7B)) |
| --- | --- | --- | --- |
| CC(C)[C@H](C(=O)Nc1ccc(C(=O)NO)cc1)c1ccccc1 [AR-42, (S)—N-Hydroxy-4-(3-methyl-2-phenylbutanamido)benzamide] | did not observe any noticeable weight loss | – | – |
| Nc1ccc(/C=C/C(=O)NCc2cc3cc(-c4ccc(C(=O)N5CCC(F)(F)CC5)cc4)cc(-c4ccc(F)cc4)c3o2)cn1 [KPT-9274, (E)-3-(6-aminopyridin-3-yl)-N-[[5-[4-(4,4-difluoropiperidine-1-carbonyl)phenyl]-7-(4-fluorophenyl)-1-benzofuran-2-yl]methyl]prop-2-enamide] | – | did not demonstrate strong synergies | did not have significant impact |
